What was measured:
[1] = molecular target: T1, Metabotropic glutamate receptor 2 (Homo sapiens, UniProt Q14416); experiment: Agonist activity at human mGLuR2 expressed in CHO cell membrane assessed as […] after 30 mins by scintillation counting relative to control; assay type: functional, cell membranes
Target sequence in this assay (Q14416 19-872 limits assumed): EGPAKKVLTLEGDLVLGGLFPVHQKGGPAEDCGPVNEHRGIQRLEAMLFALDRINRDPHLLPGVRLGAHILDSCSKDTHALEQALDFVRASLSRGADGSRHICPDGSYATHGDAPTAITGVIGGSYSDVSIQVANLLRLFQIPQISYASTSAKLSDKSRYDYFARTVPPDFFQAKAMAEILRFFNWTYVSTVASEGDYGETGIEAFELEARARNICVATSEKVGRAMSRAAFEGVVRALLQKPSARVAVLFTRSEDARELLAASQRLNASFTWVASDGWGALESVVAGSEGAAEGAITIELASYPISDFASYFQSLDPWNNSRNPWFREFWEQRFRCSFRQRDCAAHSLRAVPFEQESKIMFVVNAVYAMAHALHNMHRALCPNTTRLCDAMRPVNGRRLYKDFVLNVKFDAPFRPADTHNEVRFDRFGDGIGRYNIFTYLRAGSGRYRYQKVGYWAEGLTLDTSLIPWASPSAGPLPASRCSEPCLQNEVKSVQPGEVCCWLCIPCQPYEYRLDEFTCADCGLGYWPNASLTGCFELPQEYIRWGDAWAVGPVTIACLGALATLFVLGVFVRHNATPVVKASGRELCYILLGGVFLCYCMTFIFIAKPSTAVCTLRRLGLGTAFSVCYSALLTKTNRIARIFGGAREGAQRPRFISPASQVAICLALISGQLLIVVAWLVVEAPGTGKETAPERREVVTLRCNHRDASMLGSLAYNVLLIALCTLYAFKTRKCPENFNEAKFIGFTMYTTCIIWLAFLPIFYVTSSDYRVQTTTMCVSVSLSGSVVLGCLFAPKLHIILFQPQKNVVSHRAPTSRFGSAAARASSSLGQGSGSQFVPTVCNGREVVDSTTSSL

[2] = molecular target: T1, Metabotropic glutamate receptor 2; experiment: Agonist activity at human mGLuR2 expressed in CHO cell membrane assessed as […] after 30 mins by scintillation counting; assay type: functional, cell membranes
Target sequence in this assay (Q14416 whole entry): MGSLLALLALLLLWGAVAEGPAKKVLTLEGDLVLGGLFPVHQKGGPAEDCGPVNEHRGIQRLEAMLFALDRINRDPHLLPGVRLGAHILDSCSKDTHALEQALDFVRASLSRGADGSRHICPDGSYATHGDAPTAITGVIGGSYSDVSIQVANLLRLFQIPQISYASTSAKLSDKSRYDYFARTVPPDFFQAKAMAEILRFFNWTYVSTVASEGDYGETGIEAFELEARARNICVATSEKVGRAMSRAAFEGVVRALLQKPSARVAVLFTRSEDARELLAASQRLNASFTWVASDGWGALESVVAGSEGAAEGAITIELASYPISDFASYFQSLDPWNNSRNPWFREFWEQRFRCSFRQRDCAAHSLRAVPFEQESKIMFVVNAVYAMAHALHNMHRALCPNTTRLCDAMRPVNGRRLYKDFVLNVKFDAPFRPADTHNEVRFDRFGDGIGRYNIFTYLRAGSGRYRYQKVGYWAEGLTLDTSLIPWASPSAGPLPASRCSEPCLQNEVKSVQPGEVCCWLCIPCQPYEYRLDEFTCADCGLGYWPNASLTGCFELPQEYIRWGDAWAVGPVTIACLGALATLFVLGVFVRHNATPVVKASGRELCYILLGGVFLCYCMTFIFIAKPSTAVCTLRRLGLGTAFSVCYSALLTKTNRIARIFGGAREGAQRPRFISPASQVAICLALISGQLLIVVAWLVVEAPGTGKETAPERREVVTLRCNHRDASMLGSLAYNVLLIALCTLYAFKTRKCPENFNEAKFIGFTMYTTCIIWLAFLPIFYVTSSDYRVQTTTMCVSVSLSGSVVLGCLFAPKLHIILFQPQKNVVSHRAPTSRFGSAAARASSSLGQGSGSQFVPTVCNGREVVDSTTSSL

[3] = Fraction unbound in rat plasma; assay type: ADME, cell-free
Liver microsomes [4] = experiment: Drug metabolism in human liver microsomes assessed as O-methylated compound derivative; assay type: ADME, Microsome
Liver microsomes [5] = experiment: Drug metabolism in human liver microsomes assessed as M+O oxidative metabolite; assay type: ADME, Microsome
Liver microsomes [6] = experiment: Drug metabolism in rat liver microsomes assessed as M+O oxidative metabolite; assay type: ADME, Microsome
Liver microsomes [7] = experiment: Drug metabolism in rat liver microsomes assessed as O-methylated compound derivative; assay type: ADME, Microsome
[8] = Fraction unbound in human plasma; assay type: ADME, cell-free
Brain [9] = experiment: Ratio of SUV in total brain in iv dosed Wistar at 2 mins post administration by gamma counting to SUV in total brain in iv dosed Wistar at 30 mins post administration by gamma counting; assay type: ADME, organism-based; settings: rat, in vivo
Liver = experiment: Biodistribution in Wistar rat liver at 22 Mbq, iv measured at 60 mins post administration by gamma counting; assay type: ADME, organism-based; settings: in vivo, 1 h
[10] = Metabolic stability in Wistar rat cerebrum assessed as intact tracer at 74 MBq, iv measured at 30 mins post administration by gamma counting; assay type: ADME, organism-based; settings: read-out: Stability
Hippocampus = experiment: Ratio of SUV in hippocampus in iv dosed Wistar at 2 mins post administration by gamma counting to SUV in hippocampus in iv dosed Wistar at 30 mins post administration by gamma counting; assay type: ADME, organism-based; settings: rat, in vivo
Striatum = experiment: Ratio of SUV in striatum in iv dosed Wistar at 2 mins post administration by gamma counting to SUV in striatum in iv dosed Wistar at 30 mins post administration by gamma counting; assay type: ADME, organism-based; settings: rat, in vivo
Rattus norvegicus = experiment: Biodistribution in Wistar rat urinary system at 22 Mbq, iv measured at 60 mins post administration by gamma counting; assay type: ADME, organism-based, Urine; settings: in vivo, 1 h
[11] = Metabolic stability in Wistar rat plasma assessed as intact tracer at 74 MBq, iv measured at 30 mins post administration by gamma counting; assay type: ADME, organism-based; settings: read-out: Stability
Cerebellum [12] = experiment: Ratio of SUV in cerebellum in iv dosed Wistar at 2 mins post administration by gamma counting to SUV in cerebellum in iv dosed Wistar at 30 mins post administration by gamma counting; assay type: ADME, organism-based; settings: rat, in vivo
Cerebrum [13] = experiment: Biodistribution in Wistar rat cerebrum at 22 Mbq, iv measured at 2 mins post administration by gamma counting; assay type: ADME, organism-based; settings: in vivo
Cerebellum [14] = experiment: Biodistribution in Wistar rat cerebellum at 22 Mbq, iv measured at 2 mins post administration by gamma counting; assay type: ADME, organism-based; settings: in vivo
Cerebrum [15] = experiment: Ratio of SUV in cerebrum in iv dosed Wistar at 2 mins post administration by gamma counting to SUV in cerebrum in iv dosed Wistar at 30 mins post administration by gamma counting; assay type: ADME, organism-based; settings: rat, in vivo
[16] = Metabolic stability in Wistar rat cerebellum assessed as intact tracer at 74 MBq, iv measured at 30 mins post administration by gamma counting; assay type: ADME, organism-based; settings: read-out: Stability
Cortex = experiment: Ratio of SUV in cortex in iv dosed Wistar at 2 mins post administration by gamma counting to SUV in cortex in iv dosed Wistar at 30 mins post administration by gamma counting; assay type: ADME, organism-based; settings: rat, in vivo
Intestine = experiment: Biodistribution in Wistar rat intestine at 22 Mbq, iv measured at 60 mins post administration by gamma counting; assay type: ADME, organism-based; settings: in vivo, 1 h
Brain [17] = experiment: Biodistribution in Wistar rat brain at 22 Mbq, iv measured at 2 mins post administration by gamma counting; assay type: ADME, organism-based; settings: in vivo
HEK293 [18] = experiment: Selectivity ratio for human mGluR3 expressed in HEK293 cells to human mGluR2 expressed in CHO cell membranes; assay type: cell-based
HEK293 [19] = experiment: Selectivity ratio for human mGluR5 expressed in HEK293 cells to human mGluR2 expressed in CHO cell membranes; assay type: cell-based
CHO [20] = experiment: Selectivity ratio for human mGluR4 to human mGluR2 expressed in CHO cell membranes; assay type: cell-based
[21] = molecular target: T1, Metabotropic glutamate receptor 2; experiment: Displacement of [3H]JNJ-40068782 from human mGLuR2 expressed in CHO cell membrane after 60 mins by liquid scintillation counting; assay type: cell membranes
Target sequence in this assay (Q14416 whole entry): as above

CHO [22] = experiment: Selectivity ratio for rat mGluR6 to human mGluR2 expressed in CHO cell membranes; assay type: cell-based
HEK293 [23] = experiment: Selectivity ratio for human mGluR7 expressed in HEK293 cells to human mGluR2 expressed in CHO cell membranes; assay type: cell-based
HEK293 [24] = experiment: Selectivity ratio for human mGluR8 expressed in HEK293 cells to human mGluR2 expressed in CHO cell membranes; assay type: cell-based
HEK293 [25] = experiment: Selectivity ratio for human mGluR1 expressed in HEK293 cells to human mGluR2 expressed in CHO cell membranes; assay type: cell-based

SMILES: COc1c(F)cccc1C1CCN(c2ccn3c(CC(F)(F)F)nnc3c2C#N)CC1
- Emax [1]: 306%
- EC50 ([2]; read-out: EC50): 0.031 µM
- fraction unbound [3]: 0.04
- Drug metabolism (Liver microsomes [4]): Active
- Drug metabolism (Liver microsomes [5]): Active
- Drug metabolism (Liver microsomes [6]): Active
- Drug metabolism (Liver microsomes [7]): Active
- fraction unbound [8]: 0.047

SMILES: [11CH3]Oc1cc(F)cc(F)c1C1CCN(c2ccn3c(CC4CC4)nnc3c2Cl)CC1
- Ratio (Brain [9]): 0.88
- Drug uptake (Liver): Active
- remaining at 0.5 h [10]: 92.9%
- Ratio (Hippocampus): 0.71
- Ratio (Striatum): 0.67
- Drug uptake (Rattus norvegicus): Active
- remaining at 0.5 h [11]: 30.8%
- Ratio (Cerebellum [12]): 0.77
- Drug uptake (Cerebrum [13]): 0.53 %ID
- Drug uptake (Cerebellum [14]): 0.18 %ID
- Ratio (Cerebrum [15]): 0.72
- remaining at 0.5 h [16]: 95.5%
- Ratio (Cortex): 0.66
- Drug uptake (Intestine): Active
- Drug uptake (Brain [17]): 0.75 %ID

SMILES: COc1cc(F)cc(F)c1C1CCN(c2ccn3c(CC4CC4)nnc3c2Cl)CC1
- Selectivity ratio (HEK293 [18]): > 350
- Selectivity ratio (HEK293 [19]): > 350
- Emax [1]: 256%
- Selectivity ratio (CHO [20]): > 350
- IC50 [21]: 0.0056 µM
- Selectivity ratio (CHO [22]): > 350
- Selectivity ratio (HEK293 [23]): > 350
- fraction unbound [3]: < 0.01
- Selectivity ratio (HEK293 [24]): > 350
- Drug metabolism (Liver microsomes [4]): Active
- Drug metabolism (Liver microsomes [5]): Active
- Drug metabolism (Liver microsomes [6]): Active
- Drug metabolism (Liver microsomes [7]): Active
- Selectivity ratio (HEK293 [25]): > 350
- fraction unbound [8]: < 0.01

SMILES: COc1ccc(F)c(F)c1C1CCN(c2ccn3c(CC4CC4)nnc3c2Cl)CC1
- Selectivity ratio (HEK293 [18]): 70
- Selectivity ratio (HEK293 [19]): > 350
- Emax [1]: 258%
- Selectivity ratio (CHO [20]): > 350
- IC50 [21]: 0.0073 µM
- Selectivity ratio (CHO [22]): > 350
- Selectivity ratio (HEK293 [23]): > 350
- fraction unbound [3]: < 0.01
- Selectivity ratio (HEK293 [24]): > 350
- Drug metabolism (Liver microsomes [4]): Active
- Drug metabolism (Liver microsomes [5]): Active
- Drug metabolism (Liver microsomes [6]): Active
- Drug metabolism (Liver microsomes [7]): Active
- Selectivity ratio (HEK293 [25]): > 350
- fraction unbound [8]: < 0.01

SMILES: [11CH3]Oc1cccc(F)c1C1CCN(c2ccn3c(CC4CC4)nnc3c2Cl)CC1
- Ratio (Brain [9]): 0.72
- Drug uptake (Liver): Active
- Ratio (Hippocampus): 0.63
- Ratio (Striatum): 0.59
- Drug uptake (Rattus norvegicus): Active
- Ratio (Cerebellum [12]): 0.71
- Drug uptake (Cerebrum [13]): 0.45 %ID
- Drug uptake (Cerebellum [14]): 0.17 %ID
- Ratio (Cerebrum [15]): 0.6
- Ratio (Cortex): 0.71
- Drug uptake (Intestine): Active
- Drug uptake (Brain [17]): 0.65 %ID

SMILES: COc1c(F)ccc(F)c1C1CCN(c2ccn3c(CC4CC4)nnc3c2C(F)(F)F)CC1
- Selectivity ratio (HEK293 [18]): > 350
- Selectivity ratio (HEK293 [19]): > 350
- Emax [1]: 421%
- Selectivity ratio (CHO [20]): > 350
- Selectivity ratio (CHO [22]): > 350
- Selectivity ratio (HEK293 [23]): > 350
- fraction unbound [3]: < 0.01
- Selectivity ratio (HEK293 [24]): > 350
- Drug metabolism (Liver microsomes [4]): Active
- Drug metabolism (Liver microsomes [5]): Active
- Drug metabolism (Liver microsomes [6]): Active
- Drug metabolism (Liver microsomes [7]): Active
- Selectivity ratio (HEK293 [25]): > 350
- fraction unbound [8]: < 0.01

SMILES: N#Cc1c(N2CCC(c3ccccc3)CC2)ccn2c(CC(F)(F)F)nnc12
- EC50 ([2]; read-out: pEC50 (converted)): 0.0562 µM

SMILES: COc1c(C2CCN(c3ccn4c(CC5CC5)nnc4c3Cl)CC2)ccc(F)c1F
- Emax [1]: 342%
- EC50 ([2]; read-out: EC50): 0.026 µM
- fraction unbound [3]: < 0.01
- Drug metabolism (Liver microsomes [4]): Active
- Drug metabolism (Liver microsomes [5]): Active
- Drug metabolism (Liver microsomes [6]): Active
- Drug metabolism (Liver microsomes [7]): Active
- fraction unbound [8]: < 0.01

SMILES: COc1c(F)cccc1C1CCN(c2ccn3c(CC4CC4)nnc3c2Cl)CC1
- Emax [1]: 336%
- fraction unbound [3]: < 0.01
- Drug metabolism (Liver microsomes [4]): Active
- Drug metabolism (Liver microsomes [5]): Active
- Drug metabolism (Liver microsomes [6]): Active
- Drug metabolism (Liver microsomes [7]): Active
- fraction unbound [8]: < 0.01

SMILES: COc1ccc(F)cc1C1CCN(c2ccn3c(CC(F)(F)F)nnc3c2Cl)CC1
- Emax [1]: 340%
- fraction unbound [3]: < 0.01
- Drug metabolism (Liver microsomes [4]): Active
- Drug metabolism (Liver microsomes [5]): Active
- Drug metabolism (Liver microsomes [6]): Active
- Drug metabolism (Liver microsomes [7]): Active
- fraction unbound [8]: < 0.01

SMILES: COc1ccccc1C1CCN(c2ccn3c(CC4CC4)nnc3c2Cl)CC1
- Emax [1]: 345%
- fraction unbound [3]: < 0.01
- Drug metabolism (Liver microsomes [4]): Active
- Drug metabolism (Liver microsomes [5]): Active
- Drug metabolism (Liver microsomes [6]): Active
- Drug metabolism (Liver microsomes [7]): Active
- fraction unbound [8]: < 0.01

SMILES: COc1c(F)cccc1C1CCN(c2ccn3c(CC4CC4)nnc3c2C(F)(F)F)CC1
- Emax [1]: 528%
- EC50 ([2]; read-out: EC50): 0.011 µM
- fraction unbound [3]: < 0.01
- Drug metabolism (Liver microsomes [4]): Active
- Drug metabolism (Liver microsomes [5]): Active
- Drug metabolism (Liver microsomes [6]): Active
- Drug metabolism (Liver microsomes [7]): Active
- fraction unbound [8]: < 0.01

SMILES: [11CH3]Oc1c(F)ccc(F)c1C1CCN(c2ccn3c(CC4CC4)nnc3c2C(F)(F)F)CC1
- Ratio (Brain [9]): 1.08
- Ratio (Hippocampus): 1.01
- Ratio (Striatum): 0.86
- Ratio (Cerebellum [12]): 0.99
- Drug uptake (Cerebrum [13]): 0.54 %ID
- Drug uptake (Cerebellum [14]): 0.17 %ID
- Ratio (Cerebrum [15]): 0.98
- Ratio (Cortex): 1.04
- Drug uptake (Brain [17]): 0.75 %ID

SMILES: COc1cccc(F)c1C1CCN(c2ccn3c(CC4CC4)nnc3c2Cl)CC1
- Selectivity ratio (HEK293 [18]): > 350
- Selectivity ratio (HEK293 [19]): > 350
- Emax [1]: 304%
- Selectivity ratio (CHO [20]): > 350
- IC50 [21]: 0.0112 µM
- Selectivity ratio (CHO [22]): > 350
- Selectivity ratio (HEK293 [23]): > 350
- fraction unbound [3]: < 0.01
- Selectivity ratio (HEK293 [24]): > 350
- Drug metabolism (Liver microsomes [4]): Active
- Drug metabolism (Liver microsomes [5]): Active
- Drug metabolism (Liver microsomes [6]): Active
- Drug metabolism (Liver microsomes [7]): Active
- Selectivity ratio (HEK293 [25]): > 350
- fraction unbound [8]: < 0.01

From ChEMBL document CHEMBL2202996, “Synthesis, evaluation, and radiolabeling of new potent positive allosteric modulators of the metabotropic glutamate receptor 2 as potential tracers for positron emission tomography imaging” (J Med Chem, 2012)
